Reference: ChEMBL document CHEMBL1671772, “Predicting hERG activities of compounds from their 3D structures: development and evaluation of a global descriptors based QSAR model” (Eur J Med Chem, 2011)

Target: T1, Voltage-gated inwardly rectifying potassium channel KCNH2 (Homo sapiens, UniProt Q12809)
T1 sequence (Q12809 whole entry): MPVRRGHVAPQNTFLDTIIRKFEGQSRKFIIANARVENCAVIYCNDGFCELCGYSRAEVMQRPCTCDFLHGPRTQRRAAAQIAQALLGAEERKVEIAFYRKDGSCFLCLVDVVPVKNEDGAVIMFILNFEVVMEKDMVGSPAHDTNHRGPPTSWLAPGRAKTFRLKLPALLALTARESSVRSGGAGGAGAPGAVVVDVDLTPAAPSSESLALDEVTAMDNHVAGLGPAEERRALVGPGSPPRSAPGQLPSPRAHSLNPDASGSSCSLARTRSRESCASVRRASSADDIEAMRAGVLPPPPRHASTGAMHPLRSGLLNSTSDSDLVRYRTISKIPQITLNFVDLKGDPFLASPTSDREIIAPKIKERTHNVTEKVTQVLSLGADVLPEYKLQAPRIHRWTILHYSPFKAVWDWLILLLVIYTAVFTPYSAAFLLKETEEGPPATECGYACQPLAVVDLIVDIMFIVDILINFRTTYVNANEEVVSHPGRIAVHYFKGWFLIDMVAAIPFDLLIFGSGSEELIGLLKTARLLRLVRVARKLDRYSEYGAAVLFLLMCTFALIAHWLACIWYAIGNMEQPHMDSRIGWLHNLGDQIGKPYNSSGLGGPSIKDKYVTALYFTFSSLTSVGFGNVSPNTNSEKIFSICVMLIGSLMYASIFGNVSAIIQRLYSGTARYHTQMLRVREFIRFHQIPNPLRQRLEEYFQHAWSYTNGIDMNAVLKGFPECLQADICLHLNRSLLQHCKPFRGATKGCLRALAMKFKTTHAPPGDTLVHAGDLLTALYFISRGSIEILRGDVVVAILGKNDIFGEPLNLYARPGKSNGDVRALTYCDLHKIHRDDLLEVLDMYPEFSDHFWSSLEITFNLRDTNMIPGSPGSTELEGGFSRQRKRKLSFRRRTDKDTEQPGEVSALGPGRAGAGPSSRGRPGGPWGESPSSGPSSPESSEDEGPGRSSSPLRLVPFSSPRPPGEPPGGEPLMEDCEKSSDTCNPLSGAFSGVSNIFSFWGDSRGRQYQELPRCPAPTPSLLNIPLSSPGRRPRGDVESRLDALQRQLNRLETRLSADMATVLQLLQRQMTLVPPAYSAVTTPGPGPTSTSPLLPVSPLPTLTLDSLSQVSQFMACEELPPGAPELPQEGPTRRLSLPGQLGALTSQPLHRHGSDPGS

SMILES	IC50 [µM]
CN(C)CCCn1cc(C2=C(c3c[nH]c4ccccc34)C(=O)NC2=O)c2ccccc21 [GF-109203]	1
CCCN1C[C@H](CSC)C[C@@H]2c3cccc4[nH]cc(c34)C[C@H]21 [PERGOLIDE]	0.12
CCCC1NC(C)C2C(=O)N=C(c3cc(S(=O)(=O)N4CCN(CC)CC4)ccc3OCC)NN12 (stereo not drawn)	12.9
CCCCCCCN(CC)CCCCc1ccc([N+](=O)[O-])cc1	0.00219
CC(C(O)c1ccc(O)cc1)N1CCC(Cc2ccccc2)CC1 (stereo not drawn) [IFENPRODIL]	0.1
CCCC(C)C1(CC)C(=O)NC(=O)NC1=O (stereo not drawn) [PENTOBARBITAL]	132
CCC(O)(CC)c1cn(-c2ccc(F)cc2)c2ccc(Cl)cc12	15.8
O=C1NCCN1CCN1CCC(C2CN(c3ccc(F)cc3)c3ccccc32)CC1 (stereo not drawn)	0.0234
Fc1ccc(-n2cc(C3CCN(CCN4CCN=C4S)CC3)c3ccccc32)cc1	0.00617
Clc1ccccc1C(c1ccccc1)(c1ccccc1)n1ccnc1 [CLOTRIMAZOLE]	3.02
CCOP(=O)(Sc1ccccc1)Sc1ccccc1 [EDIFENPHOS]	50.1
CN1CC(=O)N2[C@H](c3ccc4c(c3)OCO4)c3[nH]c4ccccc4c3C[C@@H]2C1=O	100
COC(=O)C1=CCC2CCC1N2C (stereo in doubt; 41)	170
O=C1CCC(c2ccc(Nc3ccncc3)cc2)=NN1 [SENAZODAN]	1.05
O=C(NCCN1CCOCC1)c1ccc(Cl)cc1 [MOCLOBEMIDE]	79.4
COc1ccc(Cc2nccc3cc(OC)c(OC)cc23)cc1OC [PAPAVERINE]	7.24
CC1=C2C3OC(=O)C(C)C3C(O)CC2(C)C=CC1=O (stereo not drawn)	110
CCC1OC(=O)C(C)C(OC2CC(C)(OC)C(O)C(C)O2)C(C)C(OC2OC(C)CC(N(C)C)C2O)C(C)(OC)CC(C)C(=O)C(C)C(O)C1(C)O (stereo not drawn)	33.1
CCC1OC(=O)C(C)C(OC2CC(C)(OC)C(O)C(C)O2)C(C)C(OC2OC(C)CC(N(C)C)C2O)C(C)(O)CC(C)/C(=N/OCOCCOC)C(C)C(O)C1(C)O (stereo not drawn)	36.3
CC(=O)NC(=O)C1CCC(C2N=CC(c3cccc(Br)c3)=N2)CC1 (stereo not drawn)	0.501
O=C1NCCN1CCN1CCC(c2cn(C3CCCCC3)c3ccc(Cl)cc23)CC1	0.138
CC(=O)c1cn(-c2ccc(F)cc2)c2ccc(Cl)cc12	10
c1ccc(-c2[nH]c3ccccc3c2C2CC3CCC(C2)N3c2ccccc2)cc1 (stereo not drawn)	0.0178
COC(=O)C1=CCC2CCC1N2C (stereo in doubt; 21)	8.91
CCC(=O)O[C@@](Cc1ccccc1)(c1ccccc1)[C@@H](C)CN(C)C [LEVOPROPOXYPHENE]	2.75
COc1ccc(CC(=O)NCc2ccccc2-c2ccccc2C(=O)NCCc2cccnc2)cc1	10
CC(C)(C)N1CCC(c2ccccc2)(c2ccccc2)CC1 [BUDIPINE]	0.851

SMILES	IC50 [µM]
O=C(OC1Cc2c(O)cc(O)cc2OC1c1cc(O)c(O)c(O)c1)c1cc(O)c(O)c(O)c1 (stereo not drawn)	6.03
CC(C)(C)c1ccc(NC(=O)N2CCN(c3ncccc3Cl)CC2)cc1	1
COC(=O)C1=C(C)NC(C)=C(C(=O)OC(C)C)C1c1cccc2nonc12 (stereo not drawn) [ISRADIPINE]	50.1
CCCCN1CCCC[C@H]1C(=O)Nc1c(C)cccc1C [LEVOBUPIVACAINE]	20.9
COC(=O)[C@@H]1[C@H]2CC[C@@H](C[C@@H]1O)N2C	417
CCOc1cc(N)c(Cl)cc1C(=O)NCC1CN(Cc2ccc(F)cc2)CCO1 (stereo not drawn) [MOSAPRIDE]	4.79
O=C(OC1CC2CC3CC(C1)N2CC3O)c1c[nH]c2ccccc12 (stereo not drawn) [MDL-74156]	12
CO[C@@H]1[C@@H](O[C@@H]2O[C@H](C)[C@@H](O[C@H]3C[C@@](C)(O)[C@@H](OC(=O)CC(C)C)[C@H](C)O3)[C@H](N(C)C)[C@H]2O)[C@@H](CC=O)C[C@@H](C)[C@@H](O)/C=C\C=C\C[C@@H](C)OC(=O)C[C@H]1OC(C)=O	102
CCCCc1oc2ccc(NS(C)(=O)=O)cc2c1C(=O)c1ccc(OCCCN(CCCC)CCCC)cc1 [DRONEDARONE]	0.316
Cc1cn2c(N)c(Cl)cc(C(=O)NCC3CCN(CC(C)C)CC3)c2n1	2.57
CCOC(=O)C1C(OC(=O)c2ccccc2)CC2CCC1N2C (stereo not drawn)	1.2
NC(=O)N1c2ccccc2C=Cc2ccccc21 [CARBAMAZEPINE]	105
Cc1cccc(C)c1NC(=O)C1CCCCN1C (stereo not drawn) [MEPIVACAINE]	155
Fc1ccc(-n2cc(C3CCNCC3)c3cc(Cl)ccc32)cc1	0.204
COc1ccc(CC(=O)Nc2cc3c(cc2[N+](=O)[O-])OC(C)(C)[C@H](O)[C@H]3NC2CC2)cc1	43.7
COc1cc(N)c(Cl)cc1C(=O)NC1CCN(Cc2ccccc2)CC1 [CLEBOPRIDE]	0.603
CC(C)(C)c1ccc2c(ccn2-c2ccc(F)cc2)c1	10
CCNCCc1cccc(C(F)(F)F)c1	537
COc1ccc2cc3[n+](cc2c1OC)CCc1cc2c(cc1-3)OCO2 [BERBERINE]	66.1
O=C1NCCN1CCN1CC=C(c2cn(-c3ccc(F)cc3)c3ccc(Cl)cc23)CC1	0.01
Cc1cccc(C)c1OCC(C)N (stereo not drawn) [MEXILETINE]	10
CC(C)c1cn(-c2ccc(F)cc2)c2ccc(Cl)cc12	10
O=C1NCCN1CCN1CCC(c2cn(-c3ccc(F)cc3)c3ccccc23)CC1	0.00692
Cc1cc2c(s1)Nc1ccccc1N=C2N1CCN(C)CC1 [OLANZAPINE]	0.204
CC(C)(CN1CCC(=C2c3ccc(F)cc3COc3ccccc32)CC1)C(=O)O	10
CN1C2CCC1C(C(=O)O)C(OC(=O)c1ccccc1)C2 (stereo not drawn)	3980

Target: T1, Voltage-gated inwardly rectifying potassium channel KCNH2
Remark: another data set of the same source

SMILES	pIC50
CCc1cn(-c2ccc(F)cc2)c2ccc(Cl)cc12	2.46
CCCc1cn(-c2ccc(F)cc2)c2ccc(Cl)cc12	1.59
CCC(O)c1cn(-c2ccc(F)cc2)c2ccc(Cl)cc12 (stereo not drawn)	2.66
CC(O)c1cn(-c2ccc(F)cc2)c2ccc(Cl)cc12 (stereo not drawn)	2.34
CCC(=O)c1cn(-c2ccc(F)cc2)c2ccc(Cl)cc12	2.7
